A short description of data set [1]: MTT cell proliferation assay (cytotoxicity), MDCKIIwt. The class given is cell-based. As to conditions: dog, MDCKII wild-type cells, 72 h incubation, read-out: LC50, MDCKII. How it is done: (§1) Cytotoxicity of ezetimibe 1 and of newly synthesized amides 5a–f was determined using MTT cell proliferation assay in Madine-Darby Canine Kidney II wild-type (MDCKIIwt), MDCKII cells stably expressing hNPC1L1 (hNPC1L1/MDCKII) and HepG2 cell lines (Table 1). hNPC1L1/MDCKII were used as a pharmacologically validated model for investigating NPC1L1-mediated cholesterol uptake.[21] LC50 values were determined and values higher than 100 μM were considered non-toxic.
(§2) Madin-Darby Canine Kidney II wild type (MDCKIIwt), MDCKII cells stably expressing human NPC1L1 (hNPC1L1/MDCKII), and HepG2 cells were cultured in Dulbecco’s Modified Eagle Medium (DMEM) (Gibco,® Life Technologies, Carlsbad, USA) containing 10% fetal calf serum (FCS) (Sigma–Aldrich, Munich, Germany), 1% penicillin/streptomycin in a humidified 5% CO2 incubator at 37 °C. MDCKIIwt cells were stably transfected with human NPC1L1 using Lipofectamine LTX (Life Technologies, Carlsbad, USA) according to the manufacturer’s protocol. After 48 h, selection with 1000 μg/mL G418 (Sigma–Aldrich, Munich, Germany) was started. Selection lasted for two weeks, after which transfected cells were maintained in the medium containing 500 μg/mL G418.
(§3) MDCKIIwt, hNPC1L1/MDCKII, and HepG2 cells were plated in 96-well microtiter plates at 2 × 10^4 cells/mL on day 0. On the next day, tested compounds were added to obtain five 10-fold consecutive dilutions in range from 10^−8 to 10^−4 mol/L, and incubated for further 72 h. Cytotoxicity of the compounds was determined by the MTT cell proliferation assay (Sigma–Aldrich, Munich, Germany).[22] The results are expressed as LC50 values. The absorbance (A) was measured on a microplate reader at 570 nm. Cytotoxicity of each compound was tested in quadruplicate in three independent experiments. Furthermore, toxicity of the compounds in combination with micelles was tested using the same method. MDCKIIwt and hNPC1L1/MDCKII were plated in 96-well microtiter plates (150 μL medium/well) at 2 × 10^5 cells/mL 24 h before the experiment. Micelles were prepared according to the modified method described by Field et al.[23] In brief, micellar components were mixed with DMEM supplemented with 10% FCS to obtain final concentrations of 0.25 mM oleic acid, 50 μM cholesterol, 10 μM compactin, 50 μM mevalonate, 5 mM Na-taurocholate (Sigma–Aldrich, Munich, Germany) and sonicated. Tested compounds (25, 50, 100, 150, 200 μM) were added to the prepared medium, vortexed and applied to the cells for 1 h. Cytotoxicity was determined using the MTT assay.
In general terms: Tetrazolium assays rely on reduction of a dye to a coloured formazan, in cell work by metabolically active cells.

Data set [2] deals with C57BL/6 mice. Nature of the data set: In vivo acute cholesterol absorption. As to conditions: 20 mg/kg/day for 2 days, oral gavage, reduction in [3H]cholesterol radioactivity relative to vehicle, mean ± SEM. Here is the method: Finally, we tested the in vivo inhibition of cholesterol absorption of ezetimibe 1 and 4-F-phenyl representatives (5b,d,f) from each group of ezetimibe analogs. For in vivo testing, we used the compounds with lower IC50 values and higher inhibition of cholesterol uptake as determined in vitro. For that purpose, mice were treated with 20 mg/kg/day of each compound for two days, gavaged with [^3H]cholesterol and radioactivity was measured in the liver and three equal parts of the small intestine (duodenum, jejunum, ileum). The results are expressed as percent reduction in radioactivity relative to vehicle (Table 2). […] In the three parts of the small intestine (duodenum, jejunum, ileum), ezetimibe 1 lowered [^3H]cholesterol by 60%, 52%, and 44%, respectively.
26 weeks old male C57BL/6 mice (3–4 per group) were maintained in a temperature-controlled environment under a 12 h light/12 h dark cycle with free access to chow diet (Altromin Spezialfutter GmbH, Lage, Germany) and water. For two days, mice were treated with ezetimibe, tested compounds (20 mg/kg/day) or vehicle. For the treatment, compounds were dissolved in corn oil and administered to mice (100 μL) after 4 h fasting by oral gavage. On day 2, 90 min after compound administration, mice were gavaged with corn oil (200 μL) containing [^3H]cholesterol (2 μCi) ([1,2-3H(N)] cholesterol, 1 mCi/mL, ARC Inc., St. Louis, USA). Liver and small intestines were collected 4 h post-gavage and cholesterol uptake and absorption were determined as previously described.[24] Animal experiments were performed according to the standards set by the Austrian Federal Ministry of Science, Research, and Economy, Vienna, Austria.

Data set [3] in a line: in vitro. As to conditions: dog. How it is done: as §1, §2, §3
The nature of data set [4]: MTT cell proliferation assay (cytotoxicity), HepG2. Particulars: human, HepG2 cells, 72 h incubation, read-out: LC50, HepG2. Type of data set: cell-based. How it is done: The results are expressed as LC50 values. […] Cytotoxicity was determined using the MTT assay.
Data set [5] deals with hNPC1L1/MDCKII cells. Also on record: method as in PMID 25305716. Particulars: determined previously, cited from earlier work.
The test system of data set [6] is hNPC1L1/MDCKII cells. The data set is described as follows: In vitro [3H]cholesterol uptake. The class given is cell-based, Canine. As to conditions: for IC50: Canis lupus familiaris, MDCK-II, read-out: IC50, inhibition of cholesterol uptake; for maximum inhibition of cholesterol uptake: compared to untreated cells. Here is the method: Ezetimibe analogs 5a–f were tested for inhibition of cholesterol uptake in hNPC1L1/MDCKII cells (Fig. 3).
The results are expressed as percentage of inhibition compared to untreated cells and represent mean ± SEM of three independent experiments. *p <0.05, **p <0.01, ***p <0.001 determined by one-way ANOVA followed by Dunnett’s test.
In vitro cholesterol uptake was determined as described by Dražić et al.[19] In brief, hNPC1L1/MDCKII cells were plated in 24-well plates at 5 × 10^5 cells/mL medium (500 μL medium/well) in DMEM supplemented with 5% LPDS 24 h before the treatment. Cells were washed once with PBS and medium containing micelles, [^3H]cholesterol (0.18 μCi/mL medium) ([1,2-3H(N)] cholesterol, 1 mCi/mL, ARC Inc., St. Louis, USA) and tested compounds in concentrations of 0–200 μM was added. After 1 h, the medium was removed, cells were washed three times with ice-cold 0.2% free fatty acid-free BSA and lysed. Radioactivity in the lysate (100 μL) was measured by liquid scintillation counting. Protein content in lysates was determined with the DC Protein Assay (Bio-Rad, Hercules, USA). The results were expressed as percentage of inhibition compared to untreated cells in CPM/mg protein. Activity of each compound was tested in duplicate in three independent experiments.

Setting [7] is: listed as ezetimibe 1, 20 mg/kg/day.
Setting [8] is: MDCKII cells stably expressing human NPC1L1 (hNPC1L1/MDCKII).
Setting [9] is: hNPC1L1/MDCKII cells, 1 h, micelles with [3H]cholesterol.

Where “and” joins values, the source holds several entries; their conditions need not be identical. Identical values can stand only once. Like-named read-outs stand apart in the source and are kept apart here. A value given as a limit tells only on which side of the number the result lay.

We go through 7 compounds from PMC4414353, “Synthesis and evaluation of novel amide amino-β-lactam derivatives as cholesterol absorption inhibitors” (Bioorganic & medicinal chemistry, 2015).

For `O=C1[C@H](CC[C@H](O)c2ccc(F)cc2)[C@@H](c2ccc(O)cc2)N1c1ccc(F)cc1` [Compound 1, Ezetimibe, reference compound], in data set [1], the CC50 at 72 h was more than 100 µM. Also, in data set [2] (20 mg/kg/day), the “In vivo inhibition of cholesterol absorption, Duodenum” value (from here on “In vivo inhibition … Duodenum”) is listed as 60 ± 6 %; the “In vivo inhibition of cholesterol absorption, Ileum” value (“In vivo inhibition … Ileum” below) came to 44 ± 11%; the “In vivo inhibition of cholesterol absorption, Jejunum” value (“In vivo inhibition … Jejunum” below) is listed as 52 ± 3 %; the “In vivo inhibition of cholesterol absorption, Liver” value (from here on “In vivo inhibition … Liver”) is recorded as 53 ± 2 %. In data set [2] (setting [7]), the “In vivo inhibition … Duodenum” value was 60%; the “In vivo inhibition … Ileum” value is 44%; the “In vivo inhibition … Jejunum” value is 52%; the “In vivo inhibition … Liver” value is reported as 53%. Moreover, the CC50 at 72 h in data set [3] (setting [8]) was found to be 62.3 µM. Further, the CC50 at 72 h in data set [4] was found to be 69.7 µM. In data set [5] (read-out: IC50, inhibition of cholesterol uptake), the IC50 – broadly, the concentration needed to halve the response being measured – was 24 µM. Moreover, in data set [5], the “maximum inhibition of cholesterol uptake” value is listed as 40%.

Take `O=C(/C=C/c1ccccc1)N[C@H]1C(=O)N(c2ccc(F)cc2)[C@@H]1c1ccc(O)cc1` [Compound 5a, (E)-N-((2R,3R)-1-(4-Fluorophenyl)-2-(4-hydroxyphenyl)-4-oxoazetidin-3-yl)cinnamamide]: the CC50 at 72 h in data set [1] came to 66.5 µM; in data set [3] (setting [8]) it was 65.1 µM; in data set [4] it was 63.3 µM. In data set [6] (setting [9]), the IC50 worked out at 20 µM. In data set [6] (hNPC1L1/MDCKII cells), the “concentration at which maximum inhibition of cholesterol uptake was reached” value came out at 60 µM. In data set [6] (hNPC1L1/MDCKII cells), the “maximum inhibition of cholesterol uptake” value was ~ 45%.

Turning to `O=C(/C=C/c1ccc(F)cc1)N[C@H]1C(=O)N(c2ccc(F)cc2)[C@@H]1c1ccc(O)cc1` [Compound 5b, (E)-3-(4-Fluorophenyl)-N-((2R,3R)-1-(4-fluorophenyl)-2-(4-hydroxyphenyl)-4-oxoazetidin-3-yl)acrylamide], the CC50 at 72 h in data set [1] stood at 64 µM. In data set [2] (20 mg/kg/day), the “In vivo inhibition … Duodenum” value is 27% and 27 ± 10%; the “In vivo inhibition … Ileum” value is 37% and 37 ± 15%; the “In vivo inhibition … Jejunum” value was 35% and 35 ± 8%; the “In vivo inhibition … Liver” value is 49% and 49 ± 5 %. For the same compound, the CC50 at 72 h in data set [3] worked out at 63.3 µM. Also, in data set [4], the CC50 at 72 h came out at 57.5 µM. For the same compound, the IC50 in data set [6] stood at 18 µM. In addition, in data set [6] (hNPC1L1/MDCKII cells), the “concentration at which maximum inhibition of cholesterol uptake was reached” value was 60 µM and the “maximum inhibition of cholesterol uptake” value is listed as ~ 45%.

Consider `O=C(Cc1ccccc1)N[C@H]1C(=O)N(c2ccc(F)cc2)[C@@H]1c1ccc(O)cc1` [Compound 5c, N-((2R,3R)-1-(4-Fluorophenyl)-2-(4-hydroxyphenyl)-4-oxoazetidin-3-yl)-2-phenylacetamide], for which the CC50 at 72 h in data set [1], in data set [3] (setting [8]) and in data set [4] was more than 100 µM throughout. The IC50 in data set [6] (setting [9]) was 88 µM. Moreover, the “maximum inhibition of cholesterol uptake” value in data set [6] (hNPC1L1/MDCKII cells) is recorded as ~ 40%.

As for `O=C(Cc1ccc(F)cc1)N[C@H]1C(=O)N(c2ccc(F)cc2)[C@@H]1c1ccc(O)cc1` [Compound 5d, 2-(4-Fluorophenyl)-N-((2R,3R)-1-(4-fluorophenyl)-2-(4-hydroxyphenyl)-4-oxoazetidin-3-yl)acetamide], the CC50 at 72 h in data set [1] was more than 100 µM. Moreover, in data set [2] (20 mg/kg/day), the “In vivo inhibition … Duodenum” value is 15% and 15 ± 12%; the “In vivo inhibition … Ileum” value is 24% and 24 ± 13%; the “In vivo inhibition … Jejunum” value was 14% and 14 ± 20%; the “In vivo inhibition … Liver” value is 39% and 39 ± 11 %. Further, the CC50 at 72 h in data set [3] (setting [8]) is more than 100 µM. Further, in data set [4], the CC50 at 72 h is more than 100 µM. For the same compound, the IC50 in data set [6] (setting [9]) stood at 46 µM. In data set [6] (hNPC1L1/MDCKII cells), the “maximum inhibition of cholesterol uptake” value is recorded as ~ 40%.

With `O=C(N[C@H]1C(=O)N(c2ccc(F)cc2)[C@@H]1c1ccc(O)cc1)c1ccccc1` [Compound 5e, N-((2R,3R)-1-(4-Fluorophenyl)-2-(4-hydroxyphenyl)-4-oxoazetidin-3-yl)benzamide], the CC50 at 72 h in data set [1] was 91.2 µM; in data set [3] (setting [8]) it was 68.3 µM; in data set [4], 67.6 µM. Also, the half-inhibitory concentration (IC50) in data set [6] (setting [9]) amounted to 70 µM.

In the case of `O=C(N[C@H]1C(=O)N(c2ccc(F)cc2)[C@@H]1c1ccc(O)cc1)c1ccc(F)cc1` [Compound 5f, 4-Fluoro-N-((2R,3R)-1-(4-fluorophenyl)-2-(4-hydroxyphenyl)-4-oxoazetidin-3-yl)benzamide], the CC50 at 72 h in data set [1] was determined as 78.6 µM. Also, in data set [2] (20 mg/kg/day), the “In vivo inhibition … Duodenum” value is 42% and 42 ± 2%; the “In vivo inhibition … Ileum” value is 28% and 28 ± 7%; the “In vivo inhibition … Jejunum” value was 32% and 32 ± 6%; the “In vivo inhibition … Liver” value was 37% and 37 ± 8 %. Further, the CC50 at 72 h in data set [3] (setting [8]) came to 64.7 µM. Moreover, the CC50 at 72 h in data set [4] was 71.9 µM. The IC50 in data set [6] (setting [9]) was found to be 54 µM.
